Data: PubChem BioAssay (NCI)
Where “and” joins values, the source holds several entries; their conditions need not be identical. Equal values may be shown once.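 Method: 48-hour compound exposure of cells in 96-well plates, five concentrations, linear interpolation of endpoints. TGI: concentration producing complete growth inhibition.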

How the values were obtained:
Test in all cases: NCI anticancer screen, dose series, 48 h
[1] = test system: 786-0 renal
[2] = test system: CCRF-CEM leukemia
[3] = test system: COLO 205 colon
[4] = test system: DU-145 prostate
[5] = test system: HL-60(TB) leukemia
[6] = test system: MCF7 breast
[7] = test system: MDA-N
[8] = test system: OVCAR-8 ovarian
[9] = test system: SK-MEL-2 melanoma
[10] = test system: SNB-75 CNS
[11] = test system: T-47D breast

SMILES	TGI [1] [µM]	TGI [2]	TGI [3] [µM]	TGI [4] [µM]	TGI [5] [µM]	TGI [6] [µM]	TGI [7]	TGI [8]	TGI [9]	TGI [10]	TGI [11] [µM]
CN1C(=O)[C@](C)(Cc2ccc(F)cc2)N(C(=O)OC(C)(C)C)[C@@H]1C(C)(C)C	68.4	> 100 µM	39.7	> 100	26.2	59.3	> 100 µM	91.7 µM	> 100 µM	> 100 µM	90.1
COc1ccc(C(OCC2OC(n3ccc(Oc4c(F)c(F)c(F)c(F)c4F)nc3=O)CC2OP(OCCC#N)N(C(C)C)C(C)C)(c2ccccc2)c2ccc(OC)cc2)cc1 (centres undefined)	> 100	> 100 µM	> 100	> 100	> 100	> 100	> 100 µM	> 100 µM	> 100 µM	> 100 µM	> 100
Cc1cc(S(=O)(=O)Nc2n[nH]c(N)n2)c(S)cc1Cl	> 10	> 10 µM	> 10	> 10	> 10	> 10	> 10 µM	> 10 µM	> 10 µM	> 10 µM	> 10
Cc1cc(=O)oc2c(CN(CCCl)CCCl)c(O)ccc12	> 100	31.7 µM	71.7	> 100	27.4	> 100	> 100 µM	> 100 µM	> 100 µM	> 100 µM	> 100
CC(=O)OCC12C(OC(C)=O)C[C@@H](C)C3(CC(c4ccoc4)OC3=O)C1CCC(OC(C)=O)C21CO1 (some centres undefined)	> 100	> 100 µM	> 100	> 100	> 100	> 100	> 100 µM	> 100 µM	> 100 µM	> 100 µM	> 100
N#CC(NNC(=O)c1c(Cl)c(Cl)c(Cl)c(Cl)c1-c1nc2ccc(C(=O)c3ccccc3)cc2[nH]1)c1cccc(Oc2ccccc2)c1 (centres undefined)	51.4	29 µM	46.1	> 100	83.6	65.6	49.6 µM	> 100 µM	47.2 µM	72.8 µM	76.2
Cc1nc2cccc(F)c2c(=O)n1-c1nnc(C2CC2)s1	> 10	> 10 µM	> 10	> 10	> 10	> 10	> 10 µM	> 10 µM	> 10 µM	> 10 µM	> 10
NC(=O)c1nnc2c(F)cccc2c1N	> 100	> 100 µM	> 100	> 100	> 100	> 100	> 100 µM	> 100 µM	> 100 µM	> 100 µM	> 100
CN1CCN(C2CC(=O)c3c(Cl)sc(Cl)c32)CC1 (centres undefined)	21.8	14.6 µM	> 53.4	30.2	46	> 100	35 µM	> 21.3 µM	> 59.9 µM	41.5 µM	> 45.9
CC(=O)OC1COC(n2c(N)c(C#N)c(-c3ccccc3)c(C#N)c2=S)C(OC(C)=O)C1OC(C)=O (centres undefined)	> 100	67.7 µM and > 100 µM	> 100	> 100	44.8	> 100	88.2 µM and 88.3 µM	> 100 µM and 97.3 µM	> 100 µM and 68.4 µM	86.8 µM and > 100 µM	> 100
CC(C)(CO)Nc1c(O)c2c(c(O)c1Cl)C(=O)C=CC2=O	2.85	1.26 µM	2.56	3.35	0.561	2.65	2.26 µM	2.71 µM	4.8 µM	2.6 µM	4.18
C/C(=N/NC(=O)c1ccccc1Nc1ccccc1C(=O)N/N=C(\C)c1ccc(C)cc1)c1ccc(C)cc1	> 100	> 100 µM	> 100	> 100	> 100	> 100	> 100 µM	> 100 µM	> 100 µM	> 100 µM	> 100
O=C(N(C1=CCCC1)N(c1ccccc1)c1ccccc1)C(F)(F)F	96.5	91.8 µM	40.6	81.5	46.8	44.6	65.8 µM	> 100 µM	35 µM	> 100 µM	65.8
Cc1nc(C)c(C(=O)NNC(=O)c2ccccc2)cc1C(=O)NNC(=O)c1ccccc1	> 100	> 100 µM	> 100	> 100	> 100	> 100	> 100 µM	> 100 µM	> 100 µM	> 10 µM	> 100
